What all share (experiment): scanMAX kinase panel
Common to all, as to assay type: binding
Common to all, as to conditions: read-out: % Control; for remaining binding at 1 µM: 1000 nM

One experiment has as its target T1, FLT3(D835Y) (Homo sapiens, UniProt P36888, D835Y).
T1 construct: purchased DiscoverX scanMAX
T1 sequence (P36888 27-993 D835Y): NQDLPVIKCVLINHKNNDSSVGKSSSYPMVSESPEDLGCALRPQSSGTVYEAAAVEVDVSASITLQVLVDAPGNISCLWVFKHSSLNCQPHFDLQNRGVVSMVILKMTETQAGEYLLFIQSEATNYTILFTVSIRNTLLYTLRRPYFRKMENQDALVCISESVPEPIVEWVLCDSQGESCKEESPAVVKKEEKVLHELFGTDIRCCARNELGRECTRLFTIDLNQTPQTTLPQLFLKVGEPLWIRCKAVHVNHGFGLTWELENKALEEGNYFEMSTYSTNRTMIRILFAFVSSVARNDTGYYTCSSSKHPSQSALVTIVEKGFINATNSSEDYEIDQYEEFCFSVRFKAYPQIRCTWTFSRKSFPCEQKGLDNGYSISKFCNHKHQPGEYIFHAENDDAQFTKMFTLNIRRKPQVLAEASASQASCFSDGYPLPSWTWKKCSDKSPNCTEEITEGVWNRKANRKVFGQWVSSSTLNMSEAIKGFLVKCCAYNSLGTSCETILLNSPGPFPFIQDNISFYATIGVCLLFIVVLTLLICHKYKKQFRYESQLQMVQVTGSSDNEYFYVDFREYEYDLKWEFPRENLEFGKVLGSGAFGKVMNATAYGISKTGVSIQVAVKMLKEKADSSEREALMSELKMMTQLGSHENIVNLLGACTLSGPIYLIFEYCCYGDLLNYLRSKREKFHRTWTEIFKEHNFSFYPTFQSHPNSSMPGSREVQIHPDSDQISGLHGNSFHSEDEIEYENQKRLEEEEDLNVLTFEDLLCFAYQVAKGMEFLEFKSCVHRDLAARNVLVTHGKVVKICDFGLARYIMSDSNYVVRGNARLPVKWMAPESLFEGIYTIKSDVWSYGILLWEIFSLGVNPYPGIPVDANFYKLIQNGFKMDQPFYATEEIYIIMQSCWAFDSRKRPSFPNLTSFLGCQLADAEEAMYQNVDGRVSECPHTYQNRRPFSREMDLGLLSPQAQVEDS
The source says: (§1) Supplemental Table S2. scanMAXSM Kinome Assay Results. Complete tabulated data of all 468 kinases from the panel, including
(§2) 403 wild-type and 65 mutant isoforms. […] Cmpd 11 and Cmpd 24

For another experiment, the target named is T2, MEK5 (Homo sapiens, UniProt Q13163).
T2 construct: purchased DiscoverX scanMAX
T2 sequence (Q13163 1-448): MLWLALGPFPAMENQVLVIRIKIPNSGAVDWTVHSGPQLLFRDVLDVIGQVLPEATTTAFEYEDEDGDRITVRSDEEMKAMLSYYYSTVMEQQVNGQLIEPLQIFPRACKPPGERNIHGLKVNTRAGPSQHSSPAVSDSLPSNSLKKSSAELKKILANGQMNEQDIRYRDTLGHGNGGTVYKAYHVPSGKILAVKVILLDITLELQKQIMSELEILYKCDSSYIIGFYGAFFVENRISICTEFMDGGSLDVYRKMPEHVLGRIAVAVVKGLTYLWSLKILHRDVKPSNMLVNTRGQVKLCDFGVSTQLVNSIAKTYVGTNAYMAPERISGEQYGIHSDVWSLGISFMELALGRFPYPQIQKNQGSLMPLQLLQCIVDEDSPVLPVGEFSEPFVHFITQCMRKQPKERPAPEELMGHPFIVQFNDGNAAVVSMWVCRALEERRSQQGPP
Source text: as §1, §2

For a further experiment, the target named is T3, NEK1 (Homo sapiens, UniProt Q96PY6).
T3 construct: purchased DiscoverX scanMAX
T3 sequence (Q96PY6 1-1258): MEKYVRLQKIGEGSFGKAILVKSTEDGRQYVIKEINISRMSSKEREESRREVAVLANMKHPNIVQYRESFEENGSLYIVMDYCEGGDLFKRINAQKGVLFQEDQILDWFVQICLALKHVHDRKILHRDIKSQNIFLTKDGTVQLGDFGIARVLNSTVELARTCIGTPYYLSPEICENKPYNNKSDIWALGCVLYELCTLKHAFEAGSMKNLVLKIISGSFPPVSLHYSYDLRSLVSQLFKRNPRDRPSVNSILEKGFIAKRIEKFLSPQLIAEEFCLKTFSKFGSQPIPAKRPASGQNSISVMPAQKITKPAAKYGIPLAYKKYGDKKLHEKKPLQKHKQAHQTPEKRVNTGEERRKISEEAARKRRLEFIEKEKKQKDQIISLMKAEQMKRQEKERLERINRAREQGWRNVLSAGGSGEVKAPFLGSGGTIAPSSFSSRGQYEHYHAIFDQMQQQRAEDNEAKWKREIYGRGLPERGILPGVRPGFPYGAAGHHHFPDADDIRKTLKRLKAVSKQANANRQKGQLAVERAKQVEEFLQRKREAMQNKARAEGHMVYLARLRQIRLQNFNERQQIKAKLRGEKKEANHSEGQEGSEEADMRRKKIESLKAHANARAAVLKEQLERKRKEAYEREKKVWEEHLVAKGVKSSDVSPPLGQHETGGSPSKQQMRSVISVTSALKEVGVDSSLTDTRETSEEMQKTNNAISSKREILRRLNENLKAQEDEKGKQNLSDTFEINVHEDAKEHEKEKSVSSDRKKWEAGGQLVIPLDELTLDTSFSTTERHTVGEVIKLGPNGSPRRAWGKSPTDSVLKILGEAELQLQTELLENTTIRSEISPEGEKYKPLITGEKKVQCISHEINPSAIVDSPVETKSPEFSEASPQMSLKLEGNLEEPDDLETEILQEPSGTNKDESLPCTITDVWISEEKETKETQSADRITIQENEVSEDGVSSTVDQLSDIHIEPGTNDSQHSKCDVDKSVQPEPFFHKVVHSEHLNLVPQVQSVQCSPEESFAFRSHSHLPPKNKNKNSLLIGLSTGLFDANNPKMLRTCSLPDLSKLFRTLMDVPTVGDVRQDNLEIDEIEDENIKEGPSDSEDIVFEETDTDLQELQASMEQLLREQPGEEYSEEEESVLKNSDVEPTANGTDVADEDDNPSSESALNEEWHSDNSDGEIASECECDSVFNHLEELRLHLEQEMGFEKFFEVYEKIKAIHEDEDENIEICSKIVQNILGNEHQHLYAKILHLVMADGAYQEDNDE
Source text: as §1, §2

In the case of `Cc1cc(NC(=O)[C@H](O)c2cccc(F)c2)ccc1-c1cn(C)c2ncnc(N)c12` [Compound 11, (R)-N-(4-(4-amino-7-methyl-7H-pyrrolo[2,3-d]pyrimidin-5-yl)-3-methylphenyl)-2-(3-fluorophenyl)-2-hydroxy acetamide], the remaining binding at 1 µM at FLT3(D835Y) came to 80%; at MEK5, 1.1%; on NEK1, 2.9%.
For `Cc1nc(N)c2c(-c3ccc(NC(=O)[C@H](O)c4cccc(F)c4)cc3C)cn(C)c2n1` [Compound 24], the remaining binding at 1 µM amounted to 96% on FLT3(D835Y), 100% on MEK5 and 100% on NEK1.
Consider `Cc1nc(N)c2c(-c3ccc(NC(=O)[C@H](O)c4cccc(C(F)(F)F)c4)cc3C)cn(C)c2n1` [Compound 26], for which the results for the remaining binding at 0.1 µM at FLT3(D835Y) (100 nM), on MEK5 (100 nM) and on NEK1 (100 nM) were 88%, 100% and 88%, respectively. Also, the remaining binding at 1 µM on FLT3(D835Y) stood at 35%; on MEK5, 68%; on NEK1 it was 100%.
